Source: patent publication US20240366589A1, “NHE3-BINDING COMPOUNDS AND METHODS FOR INHIBITING PHOSPHATE TRANSPORT” (Ardelyx, Inc., priority 2013, published 2024)
Several values for one entry are separate records, joined by “and”; a condition that tells them apart may be missing. Identical values can stand only once.

Tests used:
Rat NHE3 = target: T1, Rat NHE3 (Rattus norvegicus, UniProt P26433); experiment: Cell-based NHE3 activity under prompt conditions (OK cells, BCECF pH recovery), rat NHE3; conditions: prompt conditions
T1 construct: expressed in transfected cells; host or cells: Opossum kidney (OK) cells (ATCC), electroporation
T1 sequence (P26433 29-831): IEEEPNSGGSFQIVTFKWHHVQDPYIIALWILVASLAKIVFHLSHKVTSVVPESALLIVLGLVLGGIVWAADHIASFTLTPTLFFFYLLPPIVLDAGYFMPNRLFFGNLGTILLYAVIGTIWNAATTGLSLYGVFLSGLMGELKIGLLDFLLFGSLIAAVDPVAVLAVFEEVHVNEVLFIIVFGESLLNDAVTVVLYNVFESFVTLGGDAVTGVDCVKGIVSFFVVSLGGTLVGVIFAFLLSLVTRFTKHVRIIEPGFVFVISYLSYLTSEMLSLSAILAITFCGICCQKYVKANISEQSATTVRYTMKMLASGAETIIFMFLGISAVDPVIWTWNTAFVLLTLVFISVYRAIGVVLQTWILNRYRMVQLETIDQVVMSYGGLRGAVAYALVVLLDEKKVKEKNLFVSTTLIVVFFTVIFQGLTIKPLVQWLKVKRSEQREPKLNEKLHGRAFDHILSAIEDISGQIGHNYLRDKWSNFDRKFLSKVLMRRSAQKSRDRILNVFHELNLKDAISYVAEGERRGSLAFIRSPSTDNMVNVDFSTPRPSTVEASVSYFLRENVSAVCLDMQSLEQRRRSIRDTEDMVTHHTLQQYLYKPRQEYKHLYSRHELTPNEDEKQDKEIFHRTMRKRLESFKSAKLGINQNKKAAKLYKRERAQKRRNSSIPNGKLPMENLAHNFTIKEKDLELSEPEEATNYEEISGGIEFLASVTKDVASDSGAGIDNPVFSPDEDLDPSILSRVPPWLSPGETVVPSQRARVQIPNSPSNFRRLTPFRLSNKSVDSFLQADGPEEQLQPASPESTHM
Procedure, shortened: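 OK cells electroporated with rat or human NHE3 gene, loaded 30 min at room temperature with 5 μM BCECF-AM in NH4Cl-HEPES pH 7.4.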

[1] = test system: absorption of sodium from the intestinal lumen; experiment: Fecal form score (FFS) 16 h after oral dose in rats; type: in vivo, rat; conditions: oral gavage, 16 h post-dose, scale 1-5
Procedure, shortened: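 Eight-week-old Sprague-Dawley rats (n=6) dosed by oral gavage with compound or water vehicle between 4 and 5 PM, then housed in metabolic cages with food and water ad libitum. At 16 h, fecal form scored 1 (normal pellet) to 5 (liquid streams) by two observers; group mean reported.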

Human NHE3 = target: T2, Human NHE3 (Homo sapiens, UniProt P48764); experiment: Cell-based NHE3 activity under prompt conditions (OK cells, BCECF pH recovery), human NHE3; conditions: prompt conditions
T2 construct: expressed in transfected cells; host or cells: Opossum kidney (OK) cells (ATCC), electroporation
T2 sequence (P48764 26-834): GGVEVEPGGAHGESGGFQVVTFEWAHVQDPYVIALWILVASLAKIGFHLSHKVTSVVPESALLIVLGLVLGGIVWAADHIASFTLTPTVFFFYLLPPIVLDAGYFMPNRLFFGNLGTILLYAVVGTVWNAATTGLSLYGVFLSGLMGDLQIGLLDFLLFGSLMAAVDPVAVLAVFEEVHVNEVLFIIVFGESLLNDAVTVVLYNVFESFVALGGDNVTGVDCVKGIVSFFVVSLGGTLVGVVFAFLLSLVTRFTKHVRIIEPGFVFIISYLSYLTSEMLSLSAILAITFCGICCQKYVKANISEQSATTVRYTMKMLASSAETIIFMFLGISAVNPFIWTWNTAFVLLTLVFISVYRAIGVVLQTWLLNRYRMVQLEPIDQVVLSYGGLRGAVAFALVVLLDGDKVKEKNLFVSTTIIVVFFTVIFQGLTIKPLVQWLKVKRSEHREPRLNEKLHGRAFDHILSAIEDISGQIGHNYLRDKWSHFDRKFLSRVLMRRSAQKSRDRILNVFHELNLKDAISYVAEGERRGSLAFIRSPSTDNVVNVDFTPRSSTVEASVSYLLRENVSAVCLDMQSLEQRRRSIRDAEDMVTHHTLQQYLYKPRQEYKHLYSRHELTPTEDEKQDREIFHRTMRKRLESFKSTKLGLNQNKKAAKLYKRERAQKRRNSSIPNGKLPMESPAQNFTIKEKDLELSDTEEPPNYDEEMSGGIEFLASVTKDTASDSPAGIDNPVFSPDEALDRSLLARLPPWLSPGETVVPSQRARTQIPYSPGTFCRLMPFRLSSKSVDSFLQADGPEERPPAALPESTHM
Description: Cell-based activity under Prompt Conditions. Rat or human NHE3-mediated Na^+-dependent H antiport was measured using a modification of the pH sensitive dye method originally reported by Paradiso (PNAS USA. 81:7436-7440, 1984). Opossum kidney (OK) cells were obtained from the ATCC and propagated per their instructions. The rat NHE3 gene (GenBank M85300) or the human NHE3 gene (GenBank NM_004174.1) was introduced into OK cells via electroporation, and cells were seeded into 96 well plates and grown overnight. Medium was aspirated from the wells, cells were washed twice with NaCl-HEPES buffer (100 mM NaCl, 50 mM HEPES, 10 mM glucose, 5 mM KCl, 2 mM CaCl2, 1 mM MgCl2, pH 7.4), then incubated for 30 min at room temperature with NH4Cl-HEPES buffer (20 mM NH4Cl, 80 mM NaCl, 50 mM HEPES, 5 mM KCl, 2 mM CaCl2, 1 mM MgCl2, pH 7.4) containing 5 μM bis(acetoxymethyl) 3,3′-(3′,6′-bis(acetoxymethoxy)-5-((acetoxymethoxy)carbonyl)-3-oxo-3H-spiro[isobenzofuran-1,9′-xanthene]-2′,7′-diyl)dipropanoate (BCECF-AM).
Cells were washed twice with Ammonium free, Na^+-free HEPES (100 mM choline, 50 mM HEPES, 10 mM glucose, 5 mM KCl, 2 mM CaCl2, 1 mM MgCl2, pH 7.4) and incubated in the same buffer for 10 minutes at room temperature to lower intracellular pH. […] Initial rates were plotted as the average 2 or more replicates, and pIC50 values were estimated using GraphPad Prism.
Cell-based activity of NHE3 Activity under ‘Prompt’ Conditions. This assay was performed as described in Example 1 (supra).

[2] = test system: absorption of sodium from the intestinal lumen; experiment: Inhibition of intestinal sodium absorption: urinary sodium (uNa) 16 h after single oral dose in rats; type: in vivo, rat; conditions: oral gavage, 16 h post-dose
Procedure, shortened: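 Eight-week-old Sprague-Dawley rats (n=6) given single oral gavage of compound or water vehicle in the late afternoon, then kept in metabolic cages with chow and water ad libitum. Urine collected over 16 h; sodium quantified by ion chromatography and expressed as % of vehicle mean, compared by one-way ANOVA with Dunnett's test.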

[3] = test system: phosphorus and calcium levels in the urine of rats; experiment: Urinary excretion of phosphate and calcium in rats (16 h overnight urine); type: in vivo, rat; conditions: rats, oral gavage, 16 h post-dose

Prompt Rat NHE3 pIC50 (Rat NHE3)	Prompt Human NHE3 pIC50 (Human NHE3)	Structure (SMILES)	Fecal Form Score average ([1]; dose 10 mg/kg)	Fecal Form Score average ([1]; dose 30 mg/kg)	Urine Na % of control ([2]; dose 10 mg/kg)	Urine Na % of control ([2]; dose 30 mg/kg)	Urine P % of control ([3]; dose 10 mg/kg)	Urine P % of control ([3]; dose 30 mg/kg)
6.90	7.85	C/C(=C\c1cc(F)c(Oc2ccc(S(=O)(=O)NCCOCCOCCOCCNC(=O)[C@H](O)[C@@H](O)C(=O)NCCOCCOCCOCCNS(=O)(=O)c3ccc(Oc4c(F)cc(/C=C(\C)C(=O)N=C(N)N)cc4F)cc3)cc2)c(F)c1)C(=O)N=C(N)N [compound 5]	1	2	51%	23%	65%	105%
6.50	7.10	C/C(=C\c1cc(F)c(Oc2ccc(S(=O)(=O)NCCOCCOCCOCCNC(=O)CN(C)CC(=O)NCCOCCOCCOCCNS(=O)(=O)c3ccc(Oc4c(F)cc(/C=C(\C)C(=O)N=C(N)N)cc4F)cc3)cc2)c(F)c1)C(=O)N=C(N)N [compound 9]	1		56%		77%	
6.10	7.00	N=C(N)Nc1nc(-c2cccc(S(=O)(=O)NCCOCCOCCOCCN)c2)c2cc(Cl)ccc2n1 [compound 12]	1		82%		94%	
6.70	7.40	C/C(=C\c1cc(F)c(Oc2ccc(S(=O)(=O)NCCOCCOCCOCCNCc3ccc(CNCCOCCOCCOCCNS(=O)(=O)c4ccc(Oc5c(F)cc(/C=C(\C)C(=O)N=C(N)N)cc5F)cc4)cc3)cc2)c(F)c1)C(=O)N=C(N)N [compound 13]	1		74%		56%	
7.00	7.60	C/C(=C\c1cc(F)c(Oc2ccc(S(=O)(=O)NCCOCCOCCOCCNC(=O)NCCOCCOCCNC(=O)NCCOCCOCCOCCNS(=O)(=O)c3ccc(Oc4c(F)cc(/C=C(\C)C(=O)N=C(N)N)cc4F)cc3)cc2)c(F)c1)C(=O)N=C(N)N [compound 14]	1		51%		59%	
7.30	7.90	C/C(=C\c1cc(F)c(Oc2ccc(S(=O)(=O)NCCOCCOCCOCCNC(=O)COCC(=O)NCCOCCOCCOCCNS(=O)(=O)c3ccc(Oc4c(F)cc(/C=C(\C)C(=O)N=C(N)N)cc4F)cc3)cc2)c(F)c1)C(=O)N=C(N)N [compound 15]	1		77%		65%	
7.10	6.60	NC(N)=Nc1nc(-c2ccc(N3CCN(CCOCCOCCNC(=O)[C@H](O)[C@@H](O)C(=O)NCCOCCOCCN4CCN(c5ccc(-c6nc(N=C(N)N)nc7ccc(Cl)cc67)cc5)CC4)CC3)cc2)c2cc(Cl)ccc2n1 [compound 17]		1		86%		120%
7.30	7.20	N=C(N)Nc1nc(-c2ccc(N3CCN(CCOCCOCCOCCNC(=O)NCCOCCOCCNC(=O)NCCOCCOCCOCCN4CCN(c5ccc(-c6nc(NC(=N)N)nc7ccc(Cl)cc67)cc5)CC4)CC3)cc2)c2cc(Cl)ccc2n1 [compound 20]	1		86%		81%	

The next lines start with the molecule.

Structure (SMILES)	Prompt Rat NHE3 pIC50 (Rat NHE3)	Prompt Human NHE3 pIC50 (Human NHE3)	Fecal Form Score average ([1]; dose 10 mg/kg)	Fecal Form Score average ([1]; dose 30 mg/kg)	Urine Na % of control ([2]; dose 10 mg/kg)	Urine Na % of control ([2]; dose 30 mg/kg)	Urine P % of control ([3]; dose 10 mg/kg)	Urine P % of control ([3]; dose 30 mg/kg)
N=C(N)Nc1nc(-c2cccc(S(=O)(=O)NCCOCCOCCN)c2)c2cc(Cl)ccc2n1 [compound 7]	6.30	7.20	1		76%		90%	
N=C(N)Nc1nc(-c2ccc(S(=O)(=O)NCCOCCOCCN)cc2)c2cc(Cl)ccc2n1 [compound 8]	6.90	6.40	1	2	73%	31%	101%	114%
NCCOCCOCCOc1cccc(-c2nc(N=C(N)N)nc3ccc(Cl)cc23)c1 [compound 10]	6.65	7.50	1		76%		80%	
NCCOCCOCCOc1ccc(-c2nc(N=C(N)N)nc3ccc(Cl)cc23)cc1 [compound 11]	6.95	6.80	1	2	60%	29%	64%	96%
NCCOCCOCCN1CCN(c2cccc(-c3nc(N=C(N)N)nc4ccc(Cl)cc34)c2)CC1 [compound 16]	6.70	7.80		1		87%		123%
NCCOCCOCCOCCN1CCN(c2ccc(-c3nc(N=C(N)N)nc4ccc(Cl)cc34)cc2)CC1 [compound 18]	7.25 and 6.90	7.35 and 6.90	1	1	74%	41%	142%	109%
NCCOCCOCCN1CCN(c2ccc(-c3nc(N=C(N)N)nc4ccc(Cl)cc34)cc2)CC1 [compound 19]	7.00	7.40	1		72%		119%	
